The text below walks through data of patent US20120244208A1, “COSMETIC SKIN CARE METHODS AND COMPOSITIONS” (priority 2009, published 2012).

Series [1] deals with Normal human dermal fibroblasts (NHDFs) seeded on collagen type 1 gels. Description: Fibroblast-seeded collagen gel contraction. Format: cell-based. Particulars: for % of original size (mean): 0.1 mg/ml lactoferrin, 0.1 mg/ml ICI 118 551, 1.0 mg/ml Isoproterenol, 3.5×10^4 cells per well. On the procedure: Normal human dermal fibroblasts (NHDFs) were obtained by tissue donation following circumcision following patient informed consent. The tissue was rinsed in Phosphate Buffered Saline (PBS) and Pen/Strep and Amphotericin B (Pen/strep) at 10 ug/ml. The tissue was then minced to 1 mm2 sections and suspended in Trypsin-EDTA 1:250 at room temperature (RT) for 1 hr. The tissue was then washed twice by centrifugation at 2500 g for 3min in serum supplemented DMEM/F12. A single cell suspension was created using mechanical disaggregation. The cells were counted using a haemocytometer and cultured at 1×10^6 cells per T75 tissue culture flask in DMEM/F12 containing 10% Fetal Bovine Serum (FBS) and 10 ug/ml Pen/strep. Incubators were kept at 37° C. and 5% CO2. Medium was changed every 3-4 days and cells were used from the 4th passage in vitro.
Collagen gels were formed. A solution of collagen, consisting of 2 mg/ml type 1 bovine collagen from bovine Achilles tendon in 0.5M acetic acid, was made. This made up 80% of the gel. Another 10% was made up of 10×PBS and the remaining volume was made up of FBS. The pH of the entire solution was adjusted to 7.4 using NaOH. 400 μl of the solution was placed into each well of a 24 well plate. The gels were set at 37° C. for 1 hr. After ensuring that the gels were set properly, they were detached from the sides of the wells and exposed to 1 ml fully supplemented DMEM/F12 overnight to acclimatize. The complete gels were seeded with 3.5×10^4 cells per well and the test compounds were added at this point. The test compound were added as follows: 0.1 mg/ml lactoferrin, 0.1 mg/ml ICI 118 551, 1.0 mg/ml Isoproterenol. A cell only and no cell control were also incuded.
Photographs were taken from the same distance at 0, 3, 6, 12 and 24 hrs of exposure using a Canon Powershot A640 10MP camera. The photos were transferred to CorelDRAW X3 and the inside diameter of the well as well as the outer edge of the gel were measured using the circle tool. […] These two diameters were then converted to a percentage of the well diameter by the formula geloutside/wellinside×100=gelrelative. This value was then worked out the same way for each gel at every time period. The time period Ohrs taken to be 100% of gel size and each time period after that was compared to it as a relative percentage. The standard deviation was calculated based on the original relative percentage to the well.

Series [2] has the same test system. Description: Fibroblast-seeded collagen gel contraction. It is filed as cell-based.
In another series the test system is fibroblasts. Particulars: concentration of 1 microM; cited from earlier work.
The subject of a further series is NHDFs. Description: Viability monitored visually for 6 days. It is filed as cell-based, human. On the procedure:
Cytotoxicity was measured using the MTT assay on NHDFs. Human dermal cells were used as it approximates the intended use. No cytotoxicity was found. […] All other cells maintained their viability over the six day period.

[3] abbreviates: 0 hrs (taken to be 100% of gel size).

With `Cc1ccc(OCC(O)C(C)NC(C)C)c2c1CCC2` (racemic) [ICI 118 551, erythro-dl-1-(7-methylindan-4-yloxy)-3-isopropylaminobutan-2-ol], the “% of original size (mean)” value worked out at 100% in series [1] (setting [3]); 66.04% in series [1] (3 hrs); 53.8% in series [1] (6 hrs); 51.33% in series [1] (12 hrs); 51.86% in series [1] (24 hrs). Further, the “rate of gel contraction compared with Lactoferrin and cells only controls” value in series [1] (over 24 hrs) is “contract the gels at a higher rate”. Moreover, in series [2] (dose response 0.01 mg/ml to 0.2 mg/ml, gel containing 3.5×10^4 cells), the “ideal concentration for gel contraction” value was 0.1 mg/mL. Besides, the “activity at lower concentrations (gel contraction)” value in series [2] (dose response from 0.01 mg/ml, concentrations lower than 0.1 mg/ml) is on record as “not be significantly active”. Also, the “effect of higher concentrations on rate of contraction” value in series [2] (dose response up to 0.2 mg/ml, concentrations higher than 0.1 mg/ml) is given as “did not seem to increase the rate of contraction significantly”. Also, in series [2] (monitored for a further 3 days), the “return of gels to original dimensions” value is “did not return to their original dimensions”.

For the compound “YTRVVWXA: peptide with the amino acid sequence YTRVVWXA (a fragment from Lactoferrin)”, the “collagen gel contraction by fibroblasts relative to control” value in the series with fibroblasts is listed as “about three times control”.

On to `CC(C)NCC(O)c1ccc(O)c(O)c1` (centres unmarked) [Isoproterenol], for which the “% of original size (mean)” value in series [1] (setting [3]) turned out to be 100%; in series [1] (3 hrs), 100.8622%; in series [1] (6 hrs) it was 79.6766%; in series [1] (12 hrs), 82.7588%; in series [1] (24 hrs) it was 83.79%. Moreover, the viability monitored visually result in the series on NHDFs is recorded as “started to lose viability”.
